The assay addresses T1, GLR-1(+STG-1, SOL-1) (Caenorhabditis elegans, UniProt P34299).
T1 construct: cRNAs of GLR-1, SOL-1 and STG-1 co-injected into Xenopus laevis oocytes; homomeric GLR-1 with auxiliary proteins; with CUB domain-containing protein SOL-1 (suppressor of lurcher 1); Stargazin-like protein STG-1
T1 sequence (P34299 26-962): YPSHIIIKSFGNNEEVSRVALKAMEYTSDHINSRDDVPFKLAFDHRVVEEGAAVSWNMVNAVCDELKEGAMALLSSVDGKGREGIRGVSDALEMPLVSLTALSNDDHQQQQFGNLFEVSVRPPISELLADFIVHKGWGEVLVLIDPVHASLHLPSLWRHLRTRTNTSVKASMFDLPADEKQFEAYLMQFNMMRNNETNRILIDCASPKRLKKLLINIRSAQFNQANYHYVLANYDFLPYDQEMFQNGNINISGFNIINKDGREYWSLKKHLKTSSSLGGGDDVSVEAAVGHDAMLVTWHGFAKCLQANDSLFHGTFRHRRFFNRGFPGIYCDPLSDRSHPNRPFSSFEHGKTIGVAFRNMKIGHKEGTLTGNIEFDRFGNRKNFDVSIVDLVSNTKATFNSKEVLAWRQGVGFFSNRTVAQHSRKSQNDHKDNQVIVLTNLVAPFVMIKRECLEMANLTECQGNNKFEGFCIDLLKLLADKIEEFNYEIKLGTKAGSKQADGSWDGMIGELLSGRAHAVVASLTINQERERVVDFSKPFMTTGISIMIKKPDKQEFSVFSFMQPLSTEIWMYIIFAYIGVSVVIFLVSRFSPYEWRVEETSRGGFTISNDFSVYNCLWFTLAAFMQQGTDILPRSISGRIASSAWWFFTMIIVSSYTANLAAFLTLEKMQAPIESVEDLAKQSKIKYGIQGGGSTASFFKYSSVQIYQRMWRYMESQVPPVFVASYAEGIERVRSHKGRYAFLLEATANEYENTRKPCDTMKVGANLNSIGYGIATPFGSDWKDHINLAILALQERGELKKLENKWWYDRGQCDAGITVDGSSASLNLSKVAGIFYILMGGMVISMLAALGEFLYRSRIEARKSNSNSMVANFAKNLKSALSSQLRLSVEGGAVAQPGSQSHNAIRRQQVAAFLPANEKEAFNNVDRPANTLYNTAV
T1 sequence (Q15KL0 1-366 partner): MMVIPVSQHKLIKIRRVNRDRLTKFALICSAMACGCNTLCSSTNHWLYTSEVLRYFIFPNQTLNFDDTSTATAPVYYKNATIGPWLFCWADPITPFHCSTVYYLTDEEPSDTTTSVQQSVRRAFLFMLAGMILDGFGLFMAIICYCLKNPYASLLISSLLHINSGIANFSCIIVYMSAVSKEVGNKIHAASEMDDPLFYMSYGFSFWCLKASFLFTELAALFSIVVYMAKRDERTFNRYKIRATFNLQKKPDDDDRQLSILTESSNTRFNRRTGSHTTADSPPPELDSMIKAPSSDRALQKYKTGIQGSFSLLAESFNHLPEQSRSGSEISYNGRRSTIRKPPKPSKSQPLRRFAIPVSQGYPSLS
T1 sequence (Q93212 24-594 partner): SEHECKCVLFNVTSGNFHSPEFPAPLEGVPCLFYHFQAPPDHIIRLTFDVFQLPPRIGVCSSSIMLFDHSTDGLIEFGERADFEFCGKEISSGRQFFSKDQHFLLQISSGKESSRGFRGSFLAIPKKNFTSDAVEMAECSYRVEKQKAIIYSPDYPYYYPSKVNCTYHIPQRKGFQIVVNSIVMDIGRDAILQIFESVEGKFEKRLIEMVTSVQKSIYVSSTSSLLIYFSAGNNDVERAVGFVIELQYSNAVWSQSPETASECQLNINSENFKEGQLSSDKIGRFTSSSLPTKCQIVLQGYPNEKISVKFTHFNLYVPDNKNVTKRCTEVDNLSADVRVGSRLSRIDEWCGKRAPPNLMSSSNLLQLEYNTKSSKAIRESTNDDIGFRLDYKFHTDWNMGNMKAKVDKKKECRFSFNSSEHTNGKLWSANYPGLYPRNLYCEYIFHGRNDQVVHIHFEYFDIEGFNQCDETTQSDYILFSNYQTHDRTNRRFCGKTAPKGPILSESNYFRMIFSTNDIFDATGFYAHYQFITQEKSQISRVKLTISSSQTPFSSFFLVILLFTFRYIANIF
Briefly: two-electrode voltage clamp of Xenopus oocytes, glutamate dose-response current. The class given is cell-based. The settings on record: agonist; inward cation current; with SOL-1 and STG-1; clamped -50 to -60 mV; pH 7.2; 0.1-10 mM glutamate for 20 s. In general terms: In two-electrode clamp one electrode senses voltage and the other passes current.

The structures appear in SMILES notation.

In the case of `N[C@@H](CCC(=O)O)C(=O)O` [glutamate], the “two-electrode voltage clamp of Xenopus oocytes, glutamate dose-response current” value is “Dose-response relationship of GLR-1-expressing Xenopus oocyte”.
